According to the supplement of paper PMC10307832:

Assays:
Test in all cases: relative viability (nuclei count vs DMSO), 5 days (fraction); higher = more cells survive
Venetoclax + Alpelisib = compound: CC1(C)CCC(CN2CCN(c3ccc(C(=O)NS(=O)(=O)c4ccc(NCC5CCOCC5)c([N+](=O)[O-])c4)c(Oc4cnc5[nH]ccc5c4)c3)CC2)=C(c2ccc(Cl)cc2)C1 [Venetoclax] + Cc1nc(NC(=O)N2CCC[C@H]2C(N)=O)sc1-c1ccnc(C(C)(C)C(F)(F)F)c1 [Alpelisib] (partner 2 µM)
Outline: (§1)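 Dosing by pin tool came one day after lung cancer cell lines were seeded in 1536-well plates, using either one drug or a fixed anchor-drug dose plus five library-drug doses (not always all listed) in √10 steps. After 5 days, nuclei were counted on 4× images. Relative viability is treated-well nuclei count divided by vehicle-well nuclei count, and values are medians of duplicate plates.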

Selumetinib + Foretinib = compound: Cn1cnc2c(F)c(Nc3ccc(Br)cc3Cl)c(C(=O)NOCCO)cc21 [Selumetinib] + COc1cc2c(Oc3ccc(NC(=O)C4(C(=O)Nc5ccc(F)cc5)CC4)cc3F)ccnc2cc1OCCCN1CCOCC1 [Foretinib] (partner 0.25 µM)
Outline: as §1

Venetoclax + Dasatinib = compound: CC1(C)CCC(CN2CCN(c3ccc(C(=O)NS(=O)(=O)c4ccc(NCC5CCOCC5)c([N+](=O)[O-])c4)c(Oc4cnc5[nH]ccc5c4)c3)CC2)=C(c2ccc(Cl)cc2)C1 [Venetoclax] + Cc1nc(Nc2ncc(C(=O)Nc3c(C)cccc3Cl)s2)cc(N2CCN(CCO)CC2)n1 [Dasatinib] (partner 0.075 µM)
Outline: as §1

Selumetinib + Phenformin = compound: Cn1cnc2c(F)c(Nc3ccc(Br)cc3Cl)c(C(=O)NOCCO)cc21 [Selumetinib] + N=C(N)NC(=N)NCCc1ccccc1 [Phenformin] (partner 250 µM)
Outline: as §1

| Cell Line | relative viability (Venetoclax + Alpelisib; first compound 0.01 µM) | relative viability (Venetoclax + Alpelisib; first compound 0.03162 µM) | relative viability (Venetoclax + Alpelisib; first compound 0.1 µM) | relative viability (Venetoclax + Alpelisib; first compound 0.3162 µM) | relative viability (Venetoclax + Alpelisib; first compound 1 µM) | relative viability (Selumetinib + Foretinib; first compound 0.02 µM) | relative viability (Selumetinib + Foretinib; first compound 0.06325 µM) | relative viability (Selumetinib + Foretinib; first compound 0.2 µM) | relative viability (Selumetinib + Foretinib; first compound 0.6325 µM) | relative viability (Venetoclax + Dasatinib; first compound 0.01 µM) | relative viability (Venetoclax + Dasatinib; first compound 0.03162 µM) | relative viability (Venetoclax + Dasatinib; first compound 0.1 µM) | relative viability (Venetoclax + Dasatinib; first compound 0.3162 µM) | relative viability (Venetoclax + Dasatinib; first compound 1 µM) | relative viability (Selumetinib + Phenformin; first compound 0.02 µM) | relative viability (Selumetinib + Phenformin; first compound 0.06325 µM) | relative viability (Selumetinib + Phenformin; first compound 0.2 µM) | relative viability (Selumetinib + Phenformin; first compound 0.6325 µM) |
| --- | --- | --- | --- | --- | --- | --- | --- | --- | --- | --- | --- | --- | --- | --- | --- | --- | --- | --- |
| NCI-H1975 | 0.673 | 0.703 | 0.609 | 0.628 | 0.543 | 0.992 | 1.09 | 1.03 | 0.724 | 0.355 | 0.4 | 0.372 | 0.318 | 0.322 | 0.426 | 0.378 | 0.379 | 0.34 |
| NCI-H1993 | 0.676 | 0.696 | 0.665 | 0.617 | 0.68 | 0.663 | 0.744 | 0.745 | 0.671 | 0.641 | 0.546 | 0.493 | 0.541 | 0.537 | 0.506 | 0.569 | 0.466 | 0.551 |
| NCI-H2009 | 1.1 | 1.15 | 1.16 | 1.11 | 1.07 | 0.965 | 0.87 | 0.511 | 0.337 | 0.37 | 0.315 | 0.283 | 0.302 | 0.266 | 0.428 | 0.359 | 0.29 | 0.217 |
| NCI-H2023 | 0.574 | 0.573 | 0.544 | 0.553 | 0.551 | 0.709 | 0.811 | 0.6 | 0.572 | 0.697 | 0.53 | 0.653 | 0.512 | 0.46 | 0.373 | 0.399 | 0.381 | 0.341 |
| NCI-H2085 | 0.911 | 0.925 | 0.884 | 0.928 | 0.911 | 0.728 | 0.829 | 0.536 | 0.567 | 0.273 | 0.238 | 0.282 | 0.243 | 0.22 | 0.637 | 0.623 | 0.602 | 0.481 |
| NCI-H2087 | 1.16 | 1.11 | 0.808 | 1.22 | 0.664 | 0.982 | 0.718 | 0.507 | 0.304 | 0.848 | 0.839 | 0.997 | 0.936 | 0.76 | 0.367 | 0.279 | 0.294 | 0.214 |
| NCI-H2126 | 0.807 | 0.728 | 0.759 | 0.819 | 0.796 | 1.13 | 0.993 | 1.05 | 0.933 | 0.568 | 0.572 | 0.612 | 0.607 | 0.546 | 0.526 | 0.453 | 0.466 | 0.434 |
| NCI-H2170 | 0.769 | 0.739 | 0.75 | 0.825 | 0.788 | 0.987 | 0.954 | 0.967 | 0.952 | 0.569 | 0.508 | 0.373 | 0.556 | 0.502 | 0.408 | 0.395 | 0.386 | 0.326 |
| NCI-H2228 | 0.696 | 0.842 | 0.698 | 0.628 | 0.757 | 0.81 | 0.802 | 0.807 | 0.623 | 0.555 | 0.546 | 0.496 | 0.488 | 0.447 | 0.254 | 0.284 | 0.219 | 0.21 |
